How the values were obtained:
[1] = tested on: Escherichia coli (E. coli—ATCC #10536); experiment: Automated assessment of efficacy in model surfactant base (2.85% sodium cocoyl glycinate + 1.85% sodium lauroamphoacetate, pH 10), 15 seconds exposure, delta OD450/OD590 in D/E quench; type: cell-based
Description: Solutions were prepared such that the concentrations of the surfactant components and test actives were 1.1× the final desired concentration in order to allow for dilution with the bacterial inoculum in the test. The solutions were manually adjusted to pH 10.0 by dropwise addition of sodium hydroxide solution, as measured with a pH meter at ambient temperature.
Tests were conducted using standard microtiter plate assays using an automated liquid handling system. 270 μl of the surfactant test solution was pipetted into each well of the microtitre plate and 30 μl of the bacterial suspension was then added. After exactly 15 seconds of bacterial exposure, a 30 μl volume of bacterial cells was withdrawn and transferred to 270 μl of D/E quench solution. After 5 minutes in the D/E quench, the optical density (OD) was measured for each plate in turn at two specific wavelengths (450 nm and 590 nm). These provide a dual check of antimicrobial activity, as the OD450 reading is specific for the yellow colour of D/E quench when bacterial growth is observed, whereas OD590 is specific for the initial purple colour of the D/E quench which is retained if no bacterial growth is observed. After the time zero OD measurements, plates were then incubated at 37° C. overnight (16 hours) before repeating the OD measurements. Delta OD values were calculated by subtracting […]. Bacterial growth is observed as an increase in OD450 and a decrease in ΔOD590. To identify antibacterially efficacious systems (those preventing appreciable bacterial growth after incubation), the following threshold changes in OD readings have been adopted: if (1). OD450 increases by less than 0.2 absorbance unit on incubation and (2). OD590 decreases by less than 0.35 unit on incubation. Conversely, where OD450 increases by more than 0.2 AU and OD590 decreases by more than 0.35 unit after incubation, corresponding to a colour shift from purple to yellow, the test system allows bacterial growth and is not deemed efficacious. Four replicate measurements in the same plate have been made for each test system. The number of replicate wells showing either bacterial growth or no growth is also readily assessed by eye by following the colour change.
Dose responses for individual components and binary mixtures of actives at a fixed concentration ratio were generated by sequential dilution of liquors with further surfactant solution to obtain a series of endpoints.
In some selected cases, the combinations were also tested at the weight ratio 1:1.
The method used was the same as in the above Table.

E. coli ATCC #10536 = experiment: Synergy test: high resolution MBC microtiter plate assay in phosphate buffer containing 35% dipropylene glycol, 15 seconds contact; type: cell-based, Escherichia coli; conditions: for MBC of the component acting alone (QA or QB; Qa or Qb with the other component at 0): E. coli 10536, complete kill in 15 seconds, phosphate buffer with 35% DPG
Text: One measure of synergy is the industrially accepted method described by Kull, F. C.; Eisman. P. C.; Sylwestrowicz, H. D. and Mayer, R. L., in Applied Microbiology 9:538-541 (1961), using the ratio determined by the formula: Qa/QA÷Qb/QB=Synergy Index (“SI”) wherein: QA=concentration of compound A (first component) in percent, acting alone, which produced an end point (MBC of Compound A). […]=concentration of compound A in percent, in the mixture, which produced an end point. QB=concentration of compound B (second component) in percent, acting alone, which produced an end point (MBC of Compound B). Qb=concentration of compound B in percent, in the mixture, which produced an end point.
When the sum of Qa/QA and Qb/QB is greater than one, antagonism is indicated. […] The lower the SI, the greater is the synergy shown by that particular mixture. The minimum biocidal concentration (MBC) of a microbicide is the lowest concentration tested under a specific set of conditions that provides complete kill of the tested microorganisms.
Synergy tests were conducted using standard microtiter plate assays with phosphate buffer containing 35% dipropylene glycol (DPG). In this method, a wide range of combinations of chemicals was tested by conducting high resolution MBC assays of Component (A) in the presence of various concentrations of Component (B). High resolution MBCs were determined by adding varying amounts of microbicide to one column of a microtiter plate and doing subsequent ten-fold dilutions using an automated liquid handling system to obtain a series of closely spaced endpoints. The MBC plate was inoculated one column at a time with the test microorganism. An aliquot of the inoculated well was transferred at 15 seconds to a plate containing a neutralizing agent (D/E Neutralizing Broth), mixed and held for 5 minutes before being transferred to a growth plate containing trypticase soy broth (TSB). The TSB plate was incubated at 37° C. and read for the presence/absence of growth at 24 hours. The lowest level tested that provided complete kill (as evidenced by no growth in the microtitre plate) of the test organisms in 15 seconds is the minimum biocidal concentration (MBC).
The synergy of the combinations of the present invention was determined against a bacterium, Esherichia coli (E. coli—ATCC #10536), at a concentration of approximately 1×10^8 bacteria per mL. This microorganism is representative of natural contaminants in many consumer and industrial applications.

Row | SMILES | Δ OD 590 nm = OD590 (time = 16 hours) − OD590 (time zero), Mean ([1]; single active at 0.1% w/v) | ΔOD 450 nm = OD450 (time = 16 hours) − OD450 (time zero), Mean ([1]; single active at 0.1% w/v) | No. of replicates showing growth (out of 4) ([1]; single active at 0.2% w/v) | Δ OD 590 nm = OD590 (time = 16 hours) − OD590 (time zero), Mean ([1]; single active at 0.2% w/v) | ΔOD 450 nm = OD450 (time = 16 hours) − OD450 (time zero), Mean ([1]; single active at 0.2% w/v) | No. of replicates showing growth (out of 4) ([1]; single active at […] w/v) | Δ OD 590 nm = OD590 (time = 16 hours) − OD590 (time zero), Mean ([1]; single active at […] w/v) | ΔOD 450 nm = OD450 (time = 16 hours) − OD450 (time zero), Mean ([1]; single active at […] w/v) | MBC of the component acting alone (QA or QB; Qa or Qb with the other component at 0) (E. coli ATCC #10536) [weight %] | further results
1 | C/C=C/c1ccccc1O [(E)-2-(prop-1-enyl)phenol] | 0.59 | −0.60 | 4 | 0.63 | −0.53 | 4 | 0.58 | −0.57 |  | No. of replicates showing growth (out of 4) ([1]; single active at 0.1% w/v): 4
2 | CCC1CCC(C(CO)CO)CC1 (centres unmarked) |  |  |  |  |  | 4 | 0.56 | −0.54 |  | No. of replicates showing growth (out of 4) ([1]; single active at 0.4% w/v): 4; Δ OD 590 nm = OD590 (time = 16 hours) − OD590 (time zero), Mean ([1]; single active at 0.4% w/v): 0.56; ΔOD 450 nm = OD450 (time = 16 hours) − OD450 (time zero), Mean ([1]; single active at 0.4% w/v): −0.49; No. of replicates showing growth (out of 4) ([1]; single active at 0.5% w/v): 4; Δ OD 590 nm = OD590 (time = 16 hours) − OD590 (time zero), Mean ([1]; single active at 0.5% w/v): 0.590; ΔOD 450 nm = OD450 (time = 16 hours) − OD450 (time zero), Mean ([1]; single active at 0.5% w/v): −0.48
3 | CCCC(=O)OC(C)(C)C1CC=C(C)CC1 (centres unmarked) [2-(4-methylcyclohex-3-enyl)propan-2-yl butyrate] |  |  |  |  |  |  |  |  | 2.4 | 
4 | Cc1cc(O)ccc1C(C)C [4-isopropyl-3-methylphenol] | 0.24 | −1.50 | 4 | 0.36 | −1.41 |  |  |  | 0.3 | Δ OD 590 nm = OD590 (time = 16 hours) − OD590 (time zero), Mean ([1]; single active at 0.05% w/v): 0.25; ΔOD 450 nm = OD450 (time = 16 hours) − OD450 (time zero), Mean ([1]; single active at 0.05% w/v): −1.52
5 | CCCCc1ccc(O)cc1 [4-n-butylphenol] | 0.53 | −0.61 |  | 0.58 | −0.54 |  | 0.54 | −0.61 |  | 
6 | CC(=O)O[C@H]1C[C@H](C)CC[C@H]1C(C)C [(1S,2S,5R)-2-isopropyl-5-methylcyclohexyl acetate] |  |  |  |  |  |  |  |  | 2.4 | 
7 | CC[C@H]1CC[C@H](C(CO)CO)CC1 [2-(trans-4-ethylcyclohexyl)propane-1,3-diol] |  |  |  |  |  |  |  |  |  | MBC ([1]; Escherichia coli, ATCC10536, 15 s, in 2.85% sodium cocoyl glycinate + 1.85% sodium lauroamphoacetate solution at pH 10, E. coli, read-out: MBC): > 2000 mg/L
8 | Cc1ccc(C(C)C)cc1O [5-isopropyl-2-methylphenol] |  |  | 4 | 0.62 | −0.52 | 4 | 0.64 | −0.52 |  | No. of replicates showing growth (out of 4) ([1]; single active at 0.125% w/v): 4; Δ OD 590 nm = OD590 (time = 16 hours) − OD590 (time zero), Mean ([1]; single active at 0.125% w/v): 0.63; ΔOD 450 nm = OD450 (time = 16 hours) − OD450 (time zero), Mean ([1]; single active at 0.125% w/v): −0.50; SI (Synergy Index) (E. coli ATCC #10536): 1.00
9 | CCC(C)c1ccc(O)cc1 (centres unmarked) [4-sec-butylphenol] |  |  | 4 | 0.59 | −0.56 |  | 0.60 | −0.53 | 0.2 | Δ OD 590 nm = OD590 (time = 16 hours) − OD590 (time zero), Mean ([1]; single active at 0.125% w/v): 0.60; ΔOD 450 nm = OD450 (time = 16 hours) − OD450 (time zero), Mean ([1]; single active at 0.125% w/v): −0.56
